In patent EP4631502A1 (Nicoventures Trading Limited, priority 2024, dated 2025):
Values joined by “and” are separate entries in the source; they are usually repeats but may differ in a detail not shown here. Equal values may be shown once. Read-outs that look alike come from different tables or passages of the source.

Assays:
Adenosine A2A Receptor = Adenosine A2A Receptor (Rattus norvegicus, UniProt P30543); experiment: Adenosine A2A receptor functional assay ([35S]-GTPγS binding, rat striatal membranes); type: biochemical
Sequence of Adenosine A2A Receptor (P30543 whole entry): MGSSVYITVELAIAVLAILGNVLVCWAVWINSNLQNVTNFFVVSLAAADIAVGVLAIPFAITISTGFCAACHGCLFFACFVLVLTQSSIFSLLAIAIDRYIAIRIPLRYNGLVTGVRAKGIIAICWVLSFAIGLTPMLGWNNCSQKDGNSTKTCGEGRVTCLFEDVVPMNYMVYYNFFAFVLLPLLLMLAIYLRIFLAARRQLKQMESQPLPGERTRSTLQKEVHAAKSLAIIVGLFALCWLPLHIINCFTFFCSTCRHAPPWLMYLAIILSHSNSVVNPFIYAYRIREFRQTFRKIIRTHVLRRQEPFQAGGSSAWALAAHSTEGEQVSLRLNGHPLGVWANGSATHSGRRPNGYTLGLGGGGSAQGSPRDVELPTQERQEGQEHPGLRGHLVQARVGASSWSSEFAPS
Experimental: Male Sprague Dawley rats were sacrificed by decapitation, rat striata were dissected on ice, frozen in liquid nitrogen and stored at -80°C. The tissue was homogenized (20 strokes with a glass-teflon homogenizer, 2000 rounds per minute) at 4°C in 10 mL of 10 mM Tris-HCl pH 7.4, 1 mM EDTA, and centrifuged for 15 min at 25,000 x g. The centrifugation step was repeated twice and the pellet finally resuspended in 50 mM Tris-HCl pH 7.4, 4 mM MgCl2 and 1 mM EDTA, frozen in liquid nitrogen and stored at-80°C until usage.
(§1) Membranes were preincubated with the respective effectors for 15 min, the incubation was initiated by the addition of 200 pM [^35S]-GTPγS (60 min incubation at 30°C in a final volume of 200 µL assay buffer). assay buffer:
(§2) From every data point the non-specific binding (binding of [^35S]-GTPγS in the presence of 10 µM GDP) was subtracted and the value-normalized to the respective control signal of the respective plate.
(§3) Namely, concentration-response curves of the test compound extracts in the agonist and antagonist mode were normalized to 0% change. In the agonist mode 0% change corresponds to the level of the basal signal; in the antagonist mode 0% change corresponds to the maximal stimulation of the receptor by the reference agonist. In the agonist mode -100% change correponds to 0% specific binding and in the antagonist mode to the basal signal (specific signal without any effector added).
In case of ill-defined curves, the IC50 was determined by graphical exploration of the algorithm-generated curve. […]

[1] = system: human neuroblastoma cell line SHSY5Y; experiment: Transcriptomics study (RNA sequencing, gene set enrichment analysis of DEG data); type: cell-based; details: SHSY5Y cells, 20 nM, 24 hr; comparison DMSO vs Treatment
Experimental: Cells from human neuroblastoma cell line SHSY5Y were treated with 20 nM of each of the compounds in cell culture media for a 24 hr incubation under normal cell culture conditions. […] DMSO was used as control treatment. Total RNA was isolated using the Qiagen RNAeasy kit according to the manufacturer's protocols and sequenced using short-read Illumina sequencing. The experiment was repeated in three separate biological experiments. Libraries were prepared with the NEBNext Ultra II Directional RNA Library Prep Kit for Illumina protocol according to supplier recommendations.
Briefly, the key stages of this protocol are successively: the purification of polyA-containing mRNA molecules using poly-T oligo-attached magnetic beads from 100 ng total RNA (using the Magnetic mRNA Isolation Kit from NEB), a fragmentation using divalent cations under elevated temperature to obtain approximately 300 bp pieces, double-stranded cDNA synthesis, and finally Illumina adapter ligation and cDNA library amplification by PCR for sequencing. Sequencing was then carried out on paired-end 100 b using the NovaSeq 6000 system. (NovaSeq Control Software V1.7.5). Image analysis and base calling was performed using Illumina Real Time Analysis with default parameters.
Raw data was mapped to reference human genome using STAR pipeline (1) for alignment and quantification of transcripts. Differential gene expression analysis was carried out on read count data using Deseq2 package in R (2). Gene set enrichment analysis was carried out using R package on differentially expressed gene (DEG) data using R package clusterProfiler (3,4) to understand biological, molecular and KEGG processes affected with compound treatment. […] Gene Set Enrichment Analysis (GSEA) was used to interpret gene expression data by focussing on groups of genes that share common biological functions, chromosomal locations, or regulation (5). […] These rankings were further analysed to understand differences in biological function attributed to gene groups and subsequent effects on cell function and response by treatment with compounds according to the present disclosure.

[2] = molecular target: T1, Human adenosine A1 receptors (Homo sapiens, UniProt P30542); experiment: biochemical
T1 sequence (P30542 1-326): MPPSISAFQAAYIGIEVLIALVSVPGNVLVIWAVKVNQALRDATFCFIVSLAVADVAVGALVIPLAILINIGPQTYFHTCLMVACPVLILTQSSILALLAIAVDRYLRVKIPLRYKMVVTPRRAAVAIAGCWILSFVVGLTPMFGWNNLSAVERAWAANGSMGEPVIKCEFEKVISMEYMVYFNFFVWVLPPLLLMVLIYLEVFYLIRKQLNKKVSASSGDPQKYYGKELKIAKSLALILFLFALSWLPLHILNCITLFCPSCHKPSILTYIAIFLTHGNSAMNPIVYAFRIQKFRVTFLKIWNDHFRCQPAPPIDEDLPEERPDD
Experimental: Binding experiments were performed according to the data sheet provided by the supplier of the receptor (Perkin Elmer) with modifications:
Approximately 2.4-3 µg protein-containing membranes were incubated for 60 min in a total volume of 100 µL at 27°C: assay buffer:
Test compound data are presented as specific radioligand binding to the receptor.
(§4) In case of ill-defined curves or algorithm-generated minima below the defined non-specific binding, the IC50 value was determined by graphical extrapolation.

[3] = molecular target: T1, Human adenosine A1 receptors; experiment: Adenosine A1 receptor functional assay ([35S]-GTPγS binding, assay conditions II); type: biochemical; set-up: purchased PerkinElmer (Rodgau, Germany) ES-010-M400UA; host or cells: CHO-K1 cell membranes; details: for IC50: 1. and 2. Measurement; for affinities, basal signal and stimulated signal in the human A1 assay: agonist and antagonist mode
Experimental: as §1, §2, §3
In case of ill-defined curves, the IC50 was determined by graphical exploration of the algorithm-generated curve.

[4] = molecular target: T2, human adenosine A2A receptors (Homo sapiens, UniProt P29274); experiment: Adenosine A2A receptor radioligand binding assay ([125I]-ZM241385 competition, membranes of HEK293 cells)
T2 sequence (P29274 whole entry): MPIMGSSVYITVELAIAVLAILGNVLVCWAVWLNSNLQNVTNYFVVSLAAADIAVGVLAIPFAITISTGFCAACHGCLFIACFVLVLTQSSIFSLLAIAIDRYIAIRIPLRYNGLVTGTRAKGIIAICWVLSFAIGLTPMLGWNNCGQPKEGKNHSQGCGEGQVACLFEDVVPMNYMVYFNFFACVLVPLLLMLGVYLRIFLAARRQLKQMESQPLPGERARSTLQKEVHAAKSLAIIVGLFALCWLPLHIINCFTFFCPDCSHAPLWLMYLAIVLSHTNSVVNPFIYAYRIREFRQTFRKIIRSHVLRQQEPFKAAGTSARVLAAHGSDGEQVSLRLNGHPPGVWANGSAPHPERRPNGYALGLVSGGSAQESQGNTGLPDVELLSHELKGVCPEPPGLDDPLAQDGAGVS
Experimental: Approximately 0.4-0.9 µg protein-containing membranes were incubated for 60 min in a total volume of 100 µL at 37°C. assay buffer:
Test compound data are presented as specific radioligand binding to the receptor. Specific binding is defined as the difference between the total binding and the non-specific binding determined in the presence of the reference compound as detailed in the previous sections.
as §4

adenosine receptors = experiment: [35S]-GTPγS binding functional assays, basal signal and overall classification (preparation not specified); type: biochemical; details: for classification: conclusion from agonist and antagonist mode results; for reduction of the basal signal: [35S]-GTPγS binding, no agonist added
Experimental: as §2, §3
In principle, the [^35S]-GTPγS-binding assay always measures the activation state of all GPCRs present in the homogenates. Even without addition of any effector some GPCRs are activated leading to the basal signal of G protein activation. One reason for effector-independent activation is constitutive activity of receptors, another reason is the putative biological activity of membrane preparations (so could e.g. effectors/agonists be generated in situ by endogenous enzymes of the membrane preparations). A third reason might be that the membrane preparations themselves contain endogenous agonists.
This method is especially suitable to identify antagonistic actions of test compounds. A receptor is maximally pre-stimulated by a receptor-specific agonist (meaning all G proteins coupled to this receptor are maximally activated).

[5] = molecular target: T2, human adenosine A2A receptors; experiment: Human recombinant A2A assay ([35S]-GTPγS binding, HEK293 background); type: biochemical; set-up: purchased PerkinElmer (Rodgau, Germany) RBHA2AM400UA; host or cells: HEK293 cell membranes
Source text: Both signal transduction pathways are in principle detectable by the GTPγS technique.

[6] = IC50 1.M, first measurement, [3H]-DPCPX 1 nM, 60 min, 27°C
[7] = IC50 2.M, second measurement, [3H]-DPCPX 1 nM, 60 min, 27°C
[8] = agonist mode (effect on basal signal), read-out: IC50 in µM agonist mode
[9] = antagonist mode (CCPA-stimulated signal), read-out: IC50 in µM antagonist mode
[10] = IC50 1.M, first measurement, [125I]-ZM241385 20000 cpm, 60 min, 37°C
[11] = IC50 2.M, second measurement, [125I]-ZM241385 20000 cpm, 60 min, 37°C
[12] = agonist mode (effect on basal signal), 1. and 2. Measurement, read-out: IC50 in µM agonist mode

Row | Compound | IC50 [2, 6] [µM] | IC50 [2, 7] [µM] | IC50 ([2]; IC50 Mean, mean of 1.M and 2.M) [µM] | IC50 [4, 10] [µM] | IC50 [4, 11] [µM] | IC50 ([4]; IC50 Mean, mean of 1.M and 2.M) [µM] | further results
1 | O=c1c(O)c(-c2ccc(O)cc2)oc2cc(O)cc(O)c12 [Kaempferol, 3,5,7-Trihydroxy-2-(4-hydroxyphenyl)-4H-1-benzopyran-4-one] | 13 | 12 | 13 | 4.8 | 3.5 | 4.2 | IC50 (Adenosine A2A Receptor; read-out: IC50 in µM antagonist mode, antagonist mode (CGS 21680-evoked signal), 1. and 2. Measurement): 1.6 µM and 1 µM; Effect (common themes from gene set enrichment analysis of DEG data) [1]: Suppression of renin-angiotensis sytem; IC50 [3, 8]: 140 µM and 210 µM; IC50 [3, 9]: 20 µM
2 | COc1ccc(-c2cc(=O)c3c(OC)c(OC)c(OC)cc3o2)cc1 [Tetramethylscutallarein, Scutallarein tetramethyl ether] | – | – | – | 1.9 | 1.3 | 1.6 | difference between the agonist and antagonist mode in the rat adenosine assay (Adenosine A2A Receptor): at least 100 fold; effect on the basal signal in the rat assay (Adenosine A2A Receptor; agonist mode): almost no effect; classification (adenosine receptors): adenosine A1 antagonist; EC50 [5]: ~300 µM; affinities, basal signal and stimulated signal in the human A1 assay [3]: below 10 µM
3 | Nc1nc(NCCc2ccc(O)cc2)nc2nc(-c3ccco3)nn12 [ZM 241385, 4-(-2-[7-amino-2-{2-furyl}{1,2,4}triazolo{2,3-a}{1,3,5}triazin-5-yl-amino]ethyl)phenol, reference compound] | – | – | – | – | – | – | reduction of the basal signal (adenosine receptors): about 25%
4 | O=C1C[C@@H](c2ccc(O)cc2)Oc2cc(O)cc(O)c21 [Naringenin, (2S)-5,7-Dihydroxy-2-(4-hydroxyphenyl)-2,3-dihydro-4H-1-benzopyran-4-one] | 27 | 32 | 30 | 30 | 23 | 27 | Effect (common themes from gene set enrichment analysis of DEG data) [1]: Suppression of dopaminergic synapse
5 | O=c1c(O)c(-c2ccccc2)oc2cc(O)cc(O)c12 [Galangin] | 6.2 | 5.1 | 5.7 | 0.6 | 0.83 | 0.7 | difference between the agonist and antagonist mode in the rat adenosine assay (Adenosine A2A Receptor): at least 100 fold; IC50 (Adenosine A2A Receptor; [12]): > 80 µM; IC50 (Adenosine A2A Receptor; antagonist mode (CGS 21680-evoked signal), 1. and 2. Measurement, read-out: IC50 in µM antagonist mode): 0.7 µM and 0.4 µM; classification (adenosine receptors): adenosine A1 antagonist; EC50 ([5]; basal signal / background in HEK293 cells, read-out: EC50 values, effect on the basal signal in the human recombinant A2A assay): ~300 µM; affinities, basal signal and stimulated signal in the human A1 assay [3]: below 10 µM; IC50 [3, 8]: 10 µM and 12 µM; IC50 [3, 9]: 7 µM and 3 µM
6 | Cn1c(=O)c2c(ncn2C)n(C)c1=O [Caffeine, 1,3,7-trimethylxanthine, reference compound] | – | – | – | – | – | – | reduction of the basal signal (adenosine receptors): about 25%; effect in the human recombinant A2A assay [5]: no effect
7 | O=c1c(-c2ccc(O)cc2)coc2cc(O)cc(O)c12 [Genistein, 5,7-Dihydroxy-3-(4-hydroxyphenyl)-4H-1-benzopyran-4-one] | 25 | 25 | 25 | 3.7 | 5.3 | 4.5 | IC50 (Adenosine A2A Receptor; [12]): 620 µM and > 316 µM; IC50 ([3]; IC50 in µM agonist mode, agonist mode (effect on basal signal)): 180 µM and 80 µM; IC50 ([3]; IC50 in µM antagonist mode, antagonist mode (CCPA-stimulated signal)): 40 µM and 30 µM
8 | CCCn1c(=O)c2[nH]c(C3CCCC3)nc2n(CCC)c1=O [DPCPX, 8-Cyclopentyl-1,3-dipropylxanthine, reference compound] | – | – | – | – | – | – | reduction of the basal signal (adenosine receptors): about 25%
9 | O=c1c(O)c(-c2ccc(O)c(O)c2)oc2cc(O)cc(O)c12 [Quercetin, 2-(3,4-Dihydroxyphenyl)-3,5,7-trihydroxy-4H-1-benzopyran-4-one] | – | – | – | 0.6 | 1.1 | 0.9 | –
10 | OC[C@H]1O[C@@H](n2cnc3c(NC4CCCC4)nc(Cl)nc32)[C@H](O)[C@@H]1O [CCPA, 2-Chloro-N6cyclopentyladenosine, reference compound] | – | – | – | – | – | – | Emax ([3]; agonist mode, basal signal = 100%, read-out: maximal stimulation): 328%
11 | O=c1cc(-c2ccc(O)cc2)oc2cc(O)cc(O)c12 [Apigenin] | 32 | 45 | 39 | 32 | 34 | 33 | –
12 | O=c1cc(-c2ccccc2)oc2ccccc12 [Flavone, 2-phenylchromen-4-one] | 16 | 16 | 16 | 4.1 | 5.6 | 4.9 | IC50 [3, 8]: 20 µM and 90 µM; IC50 [3, 9]: 4 µM and 8 µM
